Earlier results in patent US20120071320A1, “LIQUID AGRICULTURAL FORMULATIONS OF IMPROVED STABILITY” (priority 2010, published 2012).

Settings: aqueous buffer solutions, both acidic and basic conditions

COC(=O)c1sccc1S(=O)(=O)NC(=O)Nc1nc(C)nc(OC)n1 [thifensulfuron methyl]
hydrolysis rate: relatively fast
